Assay results taken from ChEMBL document CHEMBL1125151, “Aldosterone antagonists. 3. Synthesis and activities of steroidal 7 alpha-(alkoxycarbonyl)-15,16-methylene spirolactones” (1990).

Experiments:
[1] = target: T1, Mineralocorticoid receptor (Rattus norvegicus) (UniProt P22199); experiment: Anti-aldosterone effect on the urinary Na/K ratio in Wistar rats compared to spironolactone; type: functional; details: Urine
T1 sequence (whole entry): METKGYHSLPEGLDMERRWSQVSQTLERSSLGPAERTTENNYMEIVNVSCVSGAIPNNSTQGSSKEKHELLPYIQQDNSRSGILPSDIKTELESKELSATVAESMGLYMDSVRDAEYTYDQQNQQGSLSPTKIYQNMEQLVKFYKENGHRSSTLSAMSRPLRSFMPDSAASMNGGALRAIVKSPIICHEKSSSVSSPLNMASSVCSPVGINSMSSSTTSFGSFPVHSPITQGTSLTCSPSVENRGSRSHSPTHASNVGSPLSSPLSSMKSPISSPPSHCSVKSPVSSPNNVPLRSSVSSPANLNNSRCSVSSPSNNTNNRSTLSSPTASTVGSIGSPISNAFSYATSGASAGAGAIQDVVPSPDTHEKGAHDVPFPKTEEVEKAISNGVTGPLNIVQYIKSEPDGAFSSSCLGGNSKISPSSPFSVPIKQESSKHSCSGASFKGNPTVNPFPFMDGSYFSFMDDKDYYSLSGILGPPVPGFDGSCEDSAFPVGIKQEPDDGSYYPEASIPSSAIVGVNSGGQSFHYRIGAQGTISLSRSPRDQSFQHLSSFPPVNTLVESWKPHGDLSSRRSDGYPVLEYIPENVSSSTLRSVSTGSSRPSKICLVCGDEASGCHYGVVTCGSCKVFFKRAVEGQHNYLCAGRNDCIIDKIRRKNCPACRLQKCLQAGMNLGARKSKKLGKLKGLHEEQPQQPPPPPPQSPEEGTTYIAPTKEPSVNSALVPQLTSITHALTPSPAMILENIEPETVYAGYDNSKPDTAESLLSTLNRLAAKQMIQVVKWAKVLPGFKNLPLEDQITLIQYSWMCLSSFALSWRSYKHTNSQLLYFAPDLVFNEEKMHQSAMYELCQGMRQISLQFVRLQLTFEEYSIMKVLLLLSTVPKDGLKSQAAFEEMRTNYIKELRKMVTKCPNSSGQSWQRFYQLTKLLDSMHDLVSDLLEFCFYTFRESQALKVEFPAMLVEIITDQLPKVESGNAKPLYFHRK

[2] = target: T2, Progesterone receptor (Oryctolagus cuniculus) (UniProt P06186); experiment: Binding to rabbit uterine progesterone receptor compared to progesterone
T2 sequence (whole entry): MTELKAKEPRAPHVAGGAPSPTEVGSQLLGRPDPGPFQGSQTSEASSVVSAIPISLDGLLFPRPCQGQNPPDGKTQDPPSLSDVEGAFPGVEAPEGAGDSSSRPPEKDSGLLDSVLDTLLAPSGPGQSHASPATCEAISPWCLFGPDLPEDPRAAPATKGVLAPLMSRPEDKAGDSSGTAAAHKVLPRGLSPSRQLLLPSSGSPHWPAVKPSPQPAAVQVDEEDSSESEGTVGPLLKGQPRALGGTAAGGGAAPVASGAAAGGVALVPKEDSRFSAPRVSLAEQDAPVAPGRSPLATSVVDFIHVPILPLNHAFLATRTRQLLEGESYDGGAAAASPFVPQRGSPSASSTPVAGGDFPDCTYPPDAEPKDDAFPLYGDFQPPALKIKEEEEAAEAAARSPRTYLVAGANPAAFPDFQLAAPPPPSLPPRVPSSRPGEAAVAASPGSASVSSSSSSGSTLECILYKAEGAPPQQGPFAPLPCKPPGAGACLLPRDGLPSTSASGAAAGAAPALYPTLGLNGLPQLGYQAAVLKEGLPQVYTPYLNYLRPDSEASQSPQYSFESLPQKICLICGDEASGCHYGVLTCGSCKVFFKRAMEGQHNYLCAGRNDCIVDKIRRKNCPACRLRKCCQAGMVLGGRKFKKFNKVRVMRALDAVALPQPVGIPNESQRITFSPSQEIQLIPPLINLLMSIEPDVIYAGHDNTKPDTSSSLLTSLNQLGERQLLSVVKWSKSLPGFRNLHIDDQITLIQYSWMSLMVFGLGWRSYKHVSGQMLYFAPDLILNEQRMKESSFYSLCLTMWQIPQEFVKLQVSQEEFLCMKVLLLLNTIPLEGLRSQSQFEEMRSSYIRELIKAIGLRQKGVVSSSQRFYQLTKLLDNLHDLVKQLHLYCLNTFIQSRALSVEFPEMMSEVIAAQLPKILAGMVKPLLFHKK

[3] = target: T3, Androgen receptor (Rattus norvegicus) (UniProt P15207); experiment: Binding to rat prostate Androgen receptor compared to dihydrotestosterone; details: Prostate gland
T3 sequence (whole entry): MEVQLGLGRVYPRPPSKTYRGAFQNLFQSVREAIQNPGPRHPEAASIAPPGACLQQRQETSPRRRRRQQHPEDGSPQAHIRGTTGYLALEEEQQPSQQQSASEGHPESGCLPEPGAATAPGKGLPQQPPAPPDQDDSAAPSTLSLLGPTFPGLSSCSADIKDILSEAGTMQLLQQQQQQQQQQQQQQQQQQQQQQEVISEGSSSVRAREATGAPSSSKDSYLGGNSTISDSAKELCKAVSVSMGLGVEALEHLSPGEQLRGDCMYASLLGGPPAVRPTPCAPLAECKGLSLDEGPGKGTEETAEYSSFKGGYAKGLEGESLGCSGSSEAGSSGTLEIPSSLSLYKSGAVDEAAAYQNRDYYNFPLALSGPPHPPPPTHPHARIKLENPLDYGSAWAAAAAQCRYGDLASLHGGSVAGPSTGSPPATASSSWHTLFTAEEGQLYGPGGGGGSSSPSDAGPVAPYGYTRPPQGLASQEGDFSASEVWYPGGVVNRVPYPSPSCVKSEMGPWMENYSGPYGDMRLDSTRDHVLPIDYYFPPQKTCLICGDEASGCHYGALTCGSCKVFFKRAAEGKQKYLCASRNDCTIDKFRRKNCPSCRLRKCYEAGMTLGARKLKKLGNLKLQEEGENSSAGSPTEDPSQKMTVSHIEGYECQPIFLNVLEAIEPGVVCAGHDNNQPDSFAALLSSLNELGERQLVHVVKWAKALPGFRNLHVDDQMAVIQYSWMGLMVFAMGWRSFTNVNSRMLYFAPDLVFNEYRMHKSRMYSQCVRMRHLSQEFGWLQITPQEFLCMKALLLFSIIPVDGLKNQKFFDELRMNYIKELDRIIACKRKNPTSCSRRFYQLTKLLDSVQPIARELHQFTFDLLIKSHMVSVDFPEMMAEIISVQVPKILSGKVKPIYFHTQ

[4] = target: T3, Androgen receptor (Rattus norvegicus); experiment: Weight of seminal vesicle as anti-androgenic activity in rat after oral dose of 24+0.1 mg/day with testosterone propionate(0.1 mg/day); type: functional
[5] = target: T3, Androgen receptor (Rattus norvegicus); experiment: Anogenital distance in rats after 50 mg/animal oral dose in Fetal Feminization test (control = 2.30+/-0.16); type: functional
[6] = target: T2, Progesterone receptor (Oryctolagus cuniculus); experiment: Progestational activity on oral administration (100 mg) in rabbit; type: functional, organism-based
[7] = target: T2, Progesterone receptor (Oryctolagus cuniculus); experiment: Progestational activity on oral administration (300 mg) in rabbit; type: functional, organism-based
[8] = target: T3, Androgen receptor (Rattus norvegicus); details: Prostate gland
Description: Weight of prostate as anti-androgenic activity in rat after oral dose of 96+0.1 mg/day with testosterone propionate(0.1 mg/day)

[9] = test system: Rattus norvegicus; experiment: Ovulation inhibitory activity in rats after 100 mg oral dose; type: functional
[10] = target: T3, Androgen receptor (Rattus norvegicus); details: Seminal vesicle
Description: Weight of seminal vesicle as anti-androgenic activity in rat after oral dose of 48+0.1 mg/day with testosterone propionate(0.1 mg/day)

[11] = target: T3, Androgen receptor (Rattus norvegicus); experiment: Weight of prostate as anti-androgenic activity in rat after oral dose of 12+0.1 mg/day with testosterone propionate(0.1 mg/day); type: functional; details: Prostate gland
[12] = target: T2, Progesterone receptor (Oryctolagus cuniculus); experiment: Progestational activity on oral administration (30 mg) in rabbit; type: functional, organism-based
[13] = target: T3, Androgen receptor (Rattus norvegicus); experiment: Weight of seminal vesicle as anti-androgenic activity in rat after oral dose of 12+0.1 mg/day with testosterone propionate(0.1 mg/day); type: functional
[14] = target: T3, Androgen receptor (Rattus norvegicus); details: Prostate gland; remark: listed apart in the source
Description: Weight of prostate as anti-androgenic activity in rat after oral dose of 48+0.1 mg/day with testosterone propionate(0.1 mg/day)

[15] = target: T3, Androgen receptor (Rattus norvegicus); details: Seminal vesicle; remark: listed apart in the source
Description: Weight of seminal vesicle as anti-androgenic activity in rat after oral dose of 96+0.1 mg/day with testosterone propionate(0.1 mg/day)

[16] = test system: Rattus norvegicus; experiment: Ovulation inhibitory activity in rats after 30 mg oral dose; type: functional
[17] = target: T3, Androgen receptor (Rattus norvegicus); experiment: Weight of prostate as anti-androgenic activity in rat after oral dose of 24+0.1 mg/day with testosterone propionate(0.1 mg/day); type: functional; details: Prostate gland

| Relative potency [1] | Competition factor [2] | Competition factor [3] | SMILES | further results |
| --- | --- | --- | --- | --- |
| < 50 | 85 |  | CCOC(=O)[C@@H]1CC2=CC(=O)C=CC2(C)C2CCC3(C)C(C21)[C@@H]1C[C@@H]1C31CCC(=O)O1 (stereo partly specified) |  |
| 140 | 98 | 53 | COC(=O)[C@@H]1CC2=CC(=O)[C@@H]3C[C@@H]3C2(C)C2CCC3(C)C(C21)[C@H]1C[C@H]1C31CCC(=O)O1 (stereo partly specified) |  |
| 140 | 92 | 29 | COC(=O)[C@@H]1CC2=CC(=O)[C@@H]3C[C@@H]3C2(C)C2CCC3(C)C(C21)[C@@H]1C[C@@H]1C31CCC(=O)O1 (stereo partly specified) |  |
| 187 | 34 | 28 | CCOC(=O)[C@@H]1CC2=CC(=O)[C@@H]3C[C@@H]3C2(C)C2CCC3(C)C(C21)[C@@H]1C[C@@H]1C31CCC(=O)O1 (stereo partly specified) |  |
| < 50 |  |  | COC(=O)[C@@H]1CC2=CC(=O)C=CC2(C)C2CCC3(C)C(C21)[C@@H]1C[C@@H]1C31CCC(=O)O1 (stereo partly specified) |  |
| 39 | 19 | 33 | CCCOC(=O)[C@@H]1CC2=CC(=O)[C@@H]3C[C@@H]3C2(C)C2CCC3(C)C(C21)[C@@H]1C[C@@H]1C31CCC(=O)O1 (stereo partly specified) |  |
| 140 | 19 | 40 | CC(C)OC(=O)[C@@H]1CC2=CC(=O)[C@@H]3C[C@@H]3C2(C)C2CCC3(C)C(C21)[C@@H]1C[C@@H]1C31CCC(=O)O1 (stereo partly specified) |  |
| 217 | 25 | 112 | COC(=O)[C@@H]1CC2=CC(=O)CCC2(C)C2CCC3(C)C(C21)[C@@H]1C[C@@H]1C31CCC(=O)O1 (stereo partly specified) | Organ weight [4]: 37 mg; Anogenital distance [5]: 2 mm; McPhail index [6]: 1.8; McPhail index [7]: 1.8; Organ weight [8]: 30 mg; Inhibition [9]: 0%; Organ weight [10]: 47 mg; Organ weight [11]: 38 mg; McPhail index [12]: 1.4; Organ weight [13]: 44 mg; Organ weight [14]: 41 mg; Organ weight [15]: 42 mg; Inhibition [16]: 0%; Organ weight [17]: 33 mg |
| 104 | 130 | 142 | COC(=O)[C@@H]1CC2=CC(=O)CCC2(C)C2CCC3(C)C(CCC34CCC(=O)O4)C21 (stereo partly specified) |  |
|  |  |  | CC(=O)S[C@@H]1CC2=CC(=O)CC[C@]2(C)[C@H]2CC[C@@]3(C)[C@@H](CC[C@@]34CCC(=O)O4)[C@H]12 [SPIRONOLACTONE] | Inhibition [9]: 100% |
| < 50 | 113 | 266 | CC(C)OC(=O)[C@@H]1CC2=CC(=O)C=CC2(C)C2CCC3(C)C(C21)[C@@H]1C[C@@H]1C31CCC(=O)O1 (stereo partly specified) |  |
| < 50 | 33 | 98 | CCOC(=O)[C@@H]1CC2=CC(=O)CCC2(C)C2CCC3(C)C(C21)[C@@H]1C[C@@H]1C31CCC(=O)O1 (stereo partly specified) |  |
| 50 | 10 | 121 | COC(=O)[C@@H]1CC2=CC(=O)CCC2(C)C2CCC3(C)C(C21)[C@H]1C[C@H]1C31CCC(=O)O1 (stereo partly specified) |  |
| < 50 | 12 | 67 | CC(C)OC(=O)[C@@H]1CC2=CC(=O)CCC2(C)C2CCC3(C)C(C21)[C@@H]1C[C@@H]1C31CCC(=O)O1 (stereo partly specified) |  |
